Data from PMC6395926, “Mass Balance and Drug Interaction Potential of Intravenous Eravacycline Administered to Healthy Subjects” (Antimicrobial Agents and Chemotherapy, 2019).
“Also recorded” adds a separate entry of the source. Like-named read-outs stand apart in the source and are kept apart here.

Legend:
[1] = Mass balance study: plasma PK of eravacycline, TP-498 and TP-6208 (LC-MS); assay type: in vivo, human; conditions: in vivo, iv
Description: (ii) Study design. This was a single-center, open-label study of a single i.v. dose of [^14C]eravacycline to assess the mass balance recovery and PK of eravacycline. The primary objectives were to determine mass balance recovery, determine routes and rates of excretion, provide metabolite profiling and structural identification, and assess the PK of radioactivity in plasma and whole blood. Subjects were screened for inclusion in the study, including a detailed medical history, physical examination, and laboratory evaluations, in the 28 days before dosing. Eligible subjects were admitted to the clinical study unit at approximately 21:00 on the evening prior to study drug administration (day −1) and remained on site until 240 h postdose for collection of urine, feces, and blood samples. After an overnight fast, each subject received 60 mg [^14C]eravacycline containing not more than 3.8 MBq (105 μCi) ^14C as a single i.v. infusion over 60 min.
(vi) Study assessments. PK parameters were determined for total radioactivity in plasma and whole blood. Eravacycline, TP-498, and TP-6208 concentrations in plasma were quantified using a validated assay with internal standards. The following PK parameters were determined: Cmax, Tmax, time from dosing before the first quantifiable concentration in a concentration versus time profile (Tlag), AUC0–t, AUC0–24, AUC0–∞, the percentage of AUC0–∞ extrapolated beyond the time of the last measurable concentration (AUC%extrap), the slope of the apparent terminal phase (lambda-z), the apparent terminal half-life (t1/2), the mean residence time estimated between time zero and infinity (MRT0-∞), the apparent volume of plasma cleared of analyte per unit time (CL), and the volume of distribution of analyte at steady state (Vss).
Plasma concentrations of eravacycline, TP-498, and TP-6208 were measured by liquid chromatography with tandem mass spectrometry (LC-MS). The LLOQ was 5 ng/ml for eravacycline, TP-498, and TP-6208. The calibration ranges for eravacycline, TP-498, and TP-6208 in human urine were 50 to 10,000 ng/ml, 50 to 1,000 ng/ml, and 20 to 1,000 ng/ml, respectively. The calibration ranges for eravacycline, TP-498, and TP-6208 in human plasma were 5 to 500 ng/ml.
(viii) Study analysis. Descriptive statistics (mean, median, standard deviation [SD], percent coefficient of variation [%CV], minimum, maximum, number, geometric mean, and geometric %CV) were calculated for all concentration data. Pharmacokinetic parameters were calculated using Phoenix WinNonlin v6.3 (Certera USA, Inc.).

[2] = in vitro; previous studies, no reference given; cited from earlier work
[3] = Drug interaction study with rifampin (CYP3A4 inducer): plasma PK of i.v. eravacycline and metabolites; assay type: in vivo, human; conditions: in vivo
Protocol: Two single-center, open-label studies were conducted to evaluate the effects of itraconazole (CYP3A4 inhibitor) and rifampin (CYP3A4 inducer) on the pharmacokinetics of i.v. eravacycline in healthy subjects.
(ii) Study design. Each study included a 28-day screening period, a 13-day treatment period (19 days for rifampin), and an end-of-study visit 2 weeks after the last dose of study drug. […] For the itraconazole study, 200 mg oral itraconazole was administered q12h on day 8 and q24h on days 9 and 10. For the rifampin study, 600 mg oral rifampin was administered q24h from day 8 to day 17. All study treatments were administered in the fasting state.
(§1) (iii) Study assessments. Blood samples for PK analysis of eravacycline and its metabolites, TP-498, TP-6208, and TP-034, were collected predose and 1, 2, 4, 6, 8, 12, 24, 36, and 48 h after the start of the i.v. infusion on day 1 and day 10 (itraconazole) or day 1 and day 17 (rifampin). Safety assessments included AEs, clinical laboratory safety tests (hematology, serum chemistry, electrolytes, coagulation, urinalysis, and lipid profile), vital signs, physical examinations, and 12-lead ECG.
Concentrations of eravacycline, TP-498, and TP-6208 in human plasma samples were measured by LC-tandem MS after solid-phase extraction over a calibration range of 5.00 to 500 ng/ml. The LLOQ for eravacycline, TP-498, TP-6208, and TP-034 in human plasma was 5.00 ng/ml. Samples with eravacycline initial concentrations above the upper limit of quantification (500 ng/ml) were diluted appropriately with control blank human plasma and reanalyzed. There was no interference seen when human plasma was fortified with eravacycline, TP-498, TP-6208, and either itraconazole or rifampin.
(iv) Pharmacokinetic analysis. PK assessments included Cmax, Tmax, AUC0–24, AUC0–t, t1/2, CL, and Vss. Actual sampling time was used for PK calculations. PK parameters were derived by noncompartmental analysis. Descriptive statistics were calculated for analyte concentrations at each evaluation time point and for all quantitative PK parameters of eravacycline, TP-498, TP-6208, and TP-034 for day 1 and day 10 (day 17 for rifampin). The effect of itraconazole or rifampin on the PK profile of i.v. eravacycline was evaluated by comparing log-transformed PK parameters (Cmax and AUC0–t) associated with the administration of study drug on day 1 and day 10 (itraconazole) or day 1 and day 17 (rifampin) using paired t tests. The ratio and 90% confidence interval (CI) were presented after back transformation to the original scale. Pharmacokinetic variables were calculated using WinNonlin Professional.

[4] = Itraconazole drug interaction study: safety/tolerability; assay type: in vivo, human; conditions: itraconazole treatment period, 3 of 11 subjects
Protocol: as §1

[5] = design: species or system human; conditions: human, in vivo
Protocol: as §1

Structure (SMILES) | CLR ([1]; human) [mL/min] | Cmax ([1]; human) [ng/mL] | geometric mean AUC0–t, fold lower than that of eravacycline ([1]; human) [fold] | geometric mean Cmax, fold lower than that of eravacycline ([1]; human) [fold] | time postdose plasma concentrations were quantifiable [1] [h] | antimicrobial activity [2] | Mean Cmax and AUC0–24 when eravacycline was dosed with or without rifampin [3] | AUC0–∞ ([1]; human) | geometric mean AUC0–∞, fold lower than that of eravacycline ([1]; human) [fold] | t1/2 ([1]; human) | subjects who experienced an AE [4] [%] | subjects who experienced an AE [5] [%]
CN(C)[C@H]1C(O)=C(C(N)=O)C(=O)[C@@]2(O)C(O)=C3C(=O)c4c(O)c(NC(=O)CN5CCCC5)cc(F)c4C[C@H]3C[C@@H]12 [TP-498] | 85.7 ± 35.5 | 20.4 ± 18.9 | 13.5 | 53.9 | 37 to 49 | no in vitro antimicrobial activity; also recorded: None exhibit antimicrobial activity | similar |  |  |  |  | 
CN(C)[C@@H]1C(=O)C(C(N)=O)=C(O)[C@@]2(O)C(=O)C3=C(O)c4c(O)c(N5C(=O)CN6CCCC65)cc(F)c4C[C@H]3C[C@@H]12 (some centres unmarked) [TP-6208] |  | 42.8 ± 28.9 | 2.9 | 25.7 | 49 to 73 | no in vitro antimicrobial activity; also recorded: None exhibit antimicrobial activity |  | 1780 ± 26.9 (n = 2) h·ng/ml | 2.5 | 18.8 ± 17.8 (n = 2) h |  | 
CCC(C)n1ncn(-c2ccc(N3CCN(c4ccc(OCC5COC(Cn6cncn6)(c6ccc(Cl)cc6Cl)O5)cc4)CC3)cc2)c1=O (centres unmarked) [itraconazole, reference compound] |  |  |  |  |  |  |  |  |  |  | 27.3 | 
CO[C@H]1/C=C/O[C@@]2(C)Oc3c(C)c(O)c4c(O)c(c(/C=N/N5CCN(C)CC5)c(O)c4c3C2=O)NC(=O)/C(C)=C\C=C\[C@H](C)[C@H](O)[C@@H](C)[C@@H](O)[C@@H](C)[C@H](OC(C)=O)[C@@H]1C [rifampin, reference compound] |  |  |  |  |  |  |  |  |  |  |  | 8.3
